Earlier results on 2 compounds are cited in patent US7659264B2, “CGRP receptor antagonists” (Merck Sharp & Dohme Corp., priority 2004, dated 2010).

Where no end group is shown, it is not given here.

In data set [1] the test system is diameter of the middle meningeal artery. The note with it: rats, electrical stimulation of the dura mater, prior administration.
In data set [2] the test system is facial blood flow. The note with it: rat, trigeminal ganglion stimulation.
The subject of data set [3] is facial blood flow. The note with it: marmoset, electrical stimulation of the trigeminal ganglion.
The test system of another data set is migraine. The following applies: clinical studies, intravenously administered.

Turning to “CGRP(8-37): a peptide CGRP antagonist; fragment of CGRP that lacks seven N-terminal amino acid residues (VTHRLAGLLSRSGGVVKNNFVPTNVGSKAF; ends and bridges not checked; UniProt P06881 90-119, looked up, fragment)”, the “effect on increased diameter of the middle meningeal artery” value in data set [1] is “blocked”. In the data set on facial blood flow [2], the “effect on increased facial blood flow” value is “inhibited”.
Consider `NCCCC[C@H](NC(=O)[C@@H](Cc1cc(Br)c(O)c(Br)c1)NC(=O)N1CCC(N2Cc3ccccc3NC2=O)CC1)C(=O)N1CCN(c2ccncc2)CC1` [BIBN4096BS], for which, in the data set on facial blood flow [3], the “effect on increase in facial blood flow” value was “could be blocked”. In addition, the “acute treatment for migraine” value in the data set with migraine is “safe and effective acute treatment for migraine”.
